Laboratory results: ChEMBL document CHEMBL2331539, “A comparative protease stability study of synthetic macrocyclic peptides that mimic two endocrine hormones” (Bioorg Med Chem Lett, 2013)
Square brackets hold non-standard residues; d marks the D form. Peptide text beside a SMILES is read from it. Dap = NC[C@H](N)C(=O)O

How the values were obtained:
Vasopressin V2 receptor = Vasopressin V2 receptor (Homo sapiens, UniProt P30518); experiment: Binding affinity to vasopression V2 receptor (unknown origin) on isolated cell membrane by vasopression competition binding assay
Chain of Vasopressin V2 receptor (P30518 whole entry): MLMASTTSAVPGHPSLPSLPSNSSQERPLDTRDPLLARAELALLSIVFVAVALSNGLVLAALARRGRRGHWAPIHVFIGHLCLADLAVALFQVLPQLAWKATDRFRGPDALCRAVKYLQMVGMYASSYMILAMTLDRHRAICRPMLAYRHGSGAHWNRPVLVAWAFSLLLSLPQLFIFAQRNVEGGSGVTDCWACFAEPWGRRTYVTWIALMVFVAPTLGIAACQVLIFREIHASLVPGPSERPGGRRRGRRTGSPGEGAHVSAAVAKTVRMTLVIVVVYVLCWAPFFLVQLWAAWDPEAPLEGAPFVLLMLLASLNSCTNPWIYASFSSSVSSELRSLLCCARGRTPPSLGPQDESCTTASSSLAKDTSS

[1] = Stability of the compound in presence of pronase (unknown origin) assessed as degradation measured after 60 mins by HPLC analysis; type: ADME; details: read-out: Drug degradation
[2] = Stability of the compound in presence of pepsin (unknown origin) assessed as degradation measured after 120 mins by HPLC analysis; type: ADME, Homo sapiens; details: read-out: Drug degradation
[3] = Stability of the compound in presence of pepsin (unknown origin) assessed as degradation measured after 360 mins by HPLC analysis; type: ADME, Homo sapiens; details: read-out: Drug degradation
[4] = Stability of the compound in presence of alpha-chymotrypsin (unknown origin) assessed as degradation measured after 360 mins by HPLC analysis; type: ADME, Homo sapiens; details: read-out: Drug degradation
[5] = Stability of the compound in presence of alpha-chymotrypsin (unknown origin) assessed as degradation measured after 120 mins by HPLC analysis; type: ADME, Homo sapiens; details: read-out: Drug degradation
[6] = Stability of the compound in presence of pronase (unknown origin) assessed as degradation measured after 120 mins by HPLC analysis; type: ADME; details: read-out: Drug degradation
[7] = Stability of the compound in presence of alpha-chymotrypsin (unknown origin) assessed as degradation measured after 60 mins by HPLC analysis; type: ADME, Homo sapiens; details: read-out: Drug degradation
[8] = Stability of the compound in presence of pepsin (unknown origin) assessed as degradation measured after 60 mins by HPLC analysis; type: ADME, Homo sapiens; details: read-out: Drug degradation
[9] = Stability of the compound in presence of pronase (unknown origin) assessed as degradation measured after 360 mins by HPLC analysis; type: ADME; details: read-out: Drug degradation

Compound `NC(=O)CC[C@@H]1NC(=O)[C@H](Cc2ccccc2)NC(=O)[C@H](Cc2ccc(O)cc2)NC(=O)[C@H](Cc2ccc(O)cc2)NC(=O)CNC(=O)[C@H](CC(N)=O)NC1=O` (cyclo(FQNGYY)) has an IC50 (Vasopressin V2 receptor) of 2 µM, a metabolised at 1 h [1] of 27.9% and a metabolised at 2 h [2] of 10.2%. For the same compound, the metabolised at 6 h [3] was 5.23%, the metabolised at 6 h [4] was 24.7% and the metabolised at 2 h [5] was 1.49%. For the same compound, the metabolised at 2 h [6] was 50.2%, the metabolised at 1 h [7] was -0.98% and the metabolised at 1 h [8] was 5.39%. For the same compound, the metabolised at 6 h [9] was 64.2%.

Work on `NC[C@@H]1NC(=O)CNC(=O)[C@H](CC(N)=O)NC(=O)[C@H](CCC(N)=O)NC(=O)[C@H](Cc2ccccc2)NC(=O)[C@H](Cc2ccc(O)cc2)NC1=O` (cyclo([Dap]YFQNG)) yielded an IC50 (Vasopressin V2 receptor) of 10.2 µM, a metabolised at 1 h [1] of -2.07% and a metabolised at 2 h [2] of 3.52%. For the same compound, the metabolised at 6 h [3] was 2.08%, the metabolised at 6 h [4] was 20.3% and the metabolised at 2 h [5] was 7.08%. The metabolised at 2 h [6] was 0.323%, the metabolised at 1 h [7] was 6.62% and the metabolised at 1 h [8] was 0.716%. It also gave a metabolised at 6 h [9] of 0.882%.

`CC[C@H](C)[C@@H]1NC(=O)[C@H](Cc2ccc(O)cc2)NC(=O)[C@H](CN)NC(=O)CNC(=O)[C@H](CC(N)=O)NC(=O)[C@H](CCC(N)=O)NC1=O` (cyclo([Dap]YIQNG)) gave a metabolised at 1 h [1] of 11.5%, a metabolised at 2 h [2] of -0.41% and a metabolised at 6 h [3] of 4.66%. It also gave a metabolised at 6 h [4] of 0.0955%, a metabolised at 2 h [5] of 0% and a metabolised at 2 h [6] of 2.99%. It also gave a metabolised at 1 h [7] of 0.136%, a metabolised at 1 h [8] of 2.34% and a metabolised at 6 h [9] of 6.2%.

For `CC[C@H](C)[C@@H]1NC(=O)[C@H](Cc2ccc(O)cc2)NC(=O)[C@@H](N)CSSC[C@@H](C(=O)N2CCC[C@H]2C(=O)N[C@@H](CC(C)C)C(=O)NCC(N)=O)NC(=O)[C@H](CC(N)=O)NC(=O)[C@H](CCC(N)=O)NC1=O` [OXYTOCIN], the metabolised at 1 h [1] was 69.6%, the metabolised at 6 h [4] was 74.6% and the metabolised at 2 h [5] was 43.2%. It also gave a metabolised at 2 h [6] of 96.8%, a metabolised at 1 h [7] of 25.1% and a metabolised at 6 h [9] of 100%.

For `NC(=O)CC[C@@H]1NC(=O)[C@H](Cc2ccccc2)NC(=O)[C@H](Cc2ccc(O)cc2)NC(=O)[C@@H](N)CSSC[C@@H](C(=O)N2CCC[C@H]2C(=O)N[C@@H](CCCN=C(N)N)C(=O)NCC(N)=O)NC(=O)[C@H](CC(N)=O)NC1=O` [VASOPRESSIN], the metabolised at 1 h [1] was 4.4%, the metabolised at 2 h [2] was 78.6% and the metabolised at 6 h [3] was 80.1%. It also gave a metabolised at 6 h [4] of 46.1%, a metabolised at 2 h [5] of 32.1% and a metabolised at 2 h [6] of 15.9%. For the same compound, the metabolised at 1 h [7] was 18.7%, the metabolised at 1 h [8] was 79.8% and the metabolised at 6 h [9] was 48.2%.
